By IC50 is commonly meant the midpoint of a concentration-inhibition curve. The term ED50 denotes the midpoint of the dose-response relation.

One assay addresses PDE1B (Homo sapiens, UniProt Q01064). Description: In vitro PDE selectivity assay, PDE1B. It is filed as biochemical. The conditions noted are these: Table 4a in vitro selectivity; read-out: IC50 PDE type 1B. As for the experimental part:
(§1) Rat recombinant PDE10A (rPDE10A2) was expressed in Sf9 cells using a recombinant rPDE10A baculovirus construct. Cells were harvested after 48 h of infection and the rPDE10A protein was purified by metal chelate chromatography on Ni-sepharose 6FF. […] The reaction was incubated for 60 min. at RT. […] After sedimentation of the beads during 30 min. the radioactivity was measured in a Perkin Elmer Topcount scintillation counter and results were expressed as cpm. For blank values the enzyme was omitted from the reaction and replaced by incubation buffer. […] The same assay principle is applied for the measurement of the affinity of the compound for other members of the PDE family with appropriate modifications in incubation buffer, substrate concentration, incubation time and stop solution.

The next assay addresses PDE2A (Homo sapiens, UniProt O00408). Description: In vitro PDE selectivity assay, PDE2A. Type of assay: biochemical. The conditions noted are these: Table 4a in vitro selectivity; read-out: IC50 PDE type 2A. As for the experimental part:
as §1

The target in another assay is PDE3A (Homo sapiens, UniProt Q14432). Description: In vitro PDE selectivity assay, PDE3A. It is filed as biochemical. The conditions noted are these: Table 4a in vitro selectivity; read-out: IC50 PDE type 3A. On the procedure:
as §1

Another assay addresses PDE7A (Homo sapiens, UniProt Q13946). Description: In vitro PDE selectivity assay, PDE7A. The conditions noted are these: Table 4a in vitro selectivity; read-out: IC50 PDE type 7A. Type of assay: biochemical. As for the experimental part: as §1
In the next assay the target is PDE9A (Homo sapiens, UniProt O76083). Put plainly: In vitro PDE selectivity assay, PDE9A. Type of assay: biochemical. The following applies: Table 4a in vitro selectivity; read-out: IC50 PDE type 9A. On the procedure:
as §1

A further assay deals with T1, PDE10 (Rattus norvegicus, UniProt Q9QYJ6).
T1 construct: from tissue; host or cells: rat brain sections, striatum (ex vivo autoradiography after in vivo dosing)
T1 sequence (Q9QYJ6 1-794): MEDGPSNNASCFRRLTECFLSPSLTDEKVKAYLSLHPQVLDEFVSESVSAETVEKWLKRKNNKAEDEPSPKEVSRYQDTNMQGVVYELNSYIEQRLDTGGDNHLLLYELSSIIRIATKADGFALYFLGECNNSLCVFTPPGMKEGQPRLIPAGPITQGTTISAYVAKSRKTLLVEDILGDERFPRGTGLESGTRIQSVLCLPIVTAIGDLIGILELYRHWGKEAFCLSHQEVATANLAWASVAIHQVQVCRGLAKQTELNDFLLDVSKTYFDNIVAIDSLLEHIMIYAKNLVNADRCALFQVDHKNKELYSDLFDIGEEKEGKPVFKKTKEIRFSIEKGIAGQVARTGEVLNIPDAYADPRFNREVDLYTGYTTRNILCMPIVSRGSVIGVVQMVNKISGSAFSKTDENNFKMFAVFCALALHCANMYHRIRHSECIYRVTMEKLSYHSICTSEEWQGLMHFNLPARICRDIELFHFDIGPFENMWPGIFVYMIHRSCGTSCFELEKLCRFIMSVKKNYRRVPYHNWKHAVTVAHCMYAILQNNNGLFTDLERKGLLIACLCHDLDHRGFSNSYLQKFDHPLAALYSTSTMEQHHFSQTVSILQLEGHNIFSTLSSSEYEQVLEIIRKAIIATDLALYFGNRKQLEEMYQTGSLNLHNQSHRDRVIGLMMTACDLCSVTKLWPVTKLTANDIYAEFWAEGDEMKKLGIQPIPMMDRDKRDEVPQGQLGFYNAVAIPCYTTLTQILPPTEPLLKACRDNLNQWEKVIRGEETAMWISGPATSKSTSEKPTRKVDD
Description: PDE10 occupancy ([3H]-MP-10, striatum). It is filed as in vivo. The conditions noted are these: rat, sc; occupancy, administered s.c.; read-out: Occ. ED50. In short, it runs like this:
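Male Wistar rats (200 g) dosed s.c. or p.o.; occupancy measured 1 h post-dose. [^3H]-MP-10 (10 μCi/animal) given i.v. 30 min before sacrifice.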

For assay [1], the system named is SCH-23390-induced hypolocomotion. Put plainly: SCH-23390-induced hypolocomotion in mice. Type of assay: in vivo. The conditions noted are these: Mus musculus; male NMRI mice, pretreated 0.5 h earlier; criterion total distance >2500 counts; read-out: ED50 reversal of SCH-23390-induced hypolocomotion. As for the experimental part:
SCH-23390-Induced Hypolocomotion in Mice
SCM-23390 (0.08 mg/kg, i.v.)-induced hypolocomotion was evaluated over a 30-min period starting immediately after the SCH-23390 challenge in male NMRI mice pretreated 0.5 h earlier with test compound or solvent. Averaged activity in solvent-treated control mice was 1540±559 counts (mean±SD; n=103). Criterion for drug-induced reversal of the SCH-23390-induced hypolocomotion: total distance: >2500 counts (2.9% false positives in controls).

PDE2A, sequence (O00408 whole entry, species assumed): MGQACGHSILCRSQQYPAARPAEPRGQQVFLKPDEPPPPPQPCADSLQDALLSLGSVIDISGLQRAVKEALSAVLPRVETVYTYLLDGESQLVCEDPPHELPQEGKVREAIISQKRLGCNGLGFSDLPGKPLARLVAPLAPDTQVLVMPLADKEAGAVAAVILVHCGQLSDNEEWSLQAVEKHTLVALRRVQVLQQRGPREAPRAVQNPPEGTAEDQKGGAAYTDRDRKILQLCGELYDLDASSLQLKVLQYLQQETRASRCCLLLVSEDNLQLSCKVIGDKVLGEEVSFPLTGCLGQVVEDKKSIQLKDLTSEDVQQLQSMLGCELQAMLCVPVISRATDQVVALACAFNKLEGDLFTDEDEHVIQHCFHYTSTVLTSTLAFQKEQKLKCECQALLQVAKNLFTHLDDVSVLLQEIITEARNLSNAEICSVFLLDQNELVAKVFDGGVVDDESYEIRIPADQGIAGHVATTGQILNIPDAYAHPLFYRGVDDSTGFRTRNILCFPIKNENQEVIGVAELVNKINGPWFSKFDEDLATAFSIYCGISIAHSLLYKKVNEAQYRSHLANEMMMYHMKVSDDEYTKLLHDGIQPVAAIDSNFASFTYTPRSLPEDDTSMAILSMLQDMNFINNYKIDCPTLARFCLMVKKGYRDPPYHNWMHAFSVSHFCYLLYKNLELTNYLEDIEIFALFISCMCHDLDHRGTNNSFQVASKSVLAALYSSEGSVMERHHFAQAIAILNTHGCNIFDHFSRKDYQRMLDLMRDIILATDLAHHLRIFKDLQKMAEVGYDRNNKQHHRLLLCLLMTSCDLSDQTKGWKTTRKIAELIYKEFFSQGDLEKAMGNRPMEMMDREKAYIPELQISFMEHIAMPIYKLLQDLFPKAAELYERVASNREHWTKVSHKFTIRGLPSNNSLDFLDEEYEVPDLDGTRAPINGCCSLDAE
PDE1B, sequence (Q01064 whole entry): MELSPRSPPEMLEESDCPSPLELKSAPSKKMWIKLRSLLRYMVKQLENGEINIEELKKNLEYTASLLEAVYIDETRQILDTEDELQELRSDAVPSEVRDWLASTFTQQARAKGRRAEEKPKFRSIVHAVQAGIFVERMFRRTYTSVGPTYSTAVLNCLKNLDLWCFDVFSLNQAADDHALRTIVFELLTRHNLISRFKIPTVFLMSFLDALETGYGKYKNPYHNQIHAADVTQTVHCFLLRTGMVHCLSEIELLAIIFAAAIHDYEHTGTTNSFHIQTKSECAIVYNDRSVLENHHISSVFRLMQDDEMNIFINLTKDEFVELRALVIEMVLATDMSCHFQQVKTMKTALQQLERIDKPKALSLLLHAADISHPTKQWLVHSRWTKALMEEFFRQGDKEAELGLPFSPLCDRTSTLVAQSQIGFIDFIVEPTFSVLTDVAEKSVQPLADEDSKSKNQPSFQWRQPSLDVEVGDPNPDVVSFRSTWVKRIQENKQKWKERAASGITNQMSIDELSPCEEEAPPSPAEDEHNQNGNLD
PDE7A, sequence (Q13946 whole entry, species assumed): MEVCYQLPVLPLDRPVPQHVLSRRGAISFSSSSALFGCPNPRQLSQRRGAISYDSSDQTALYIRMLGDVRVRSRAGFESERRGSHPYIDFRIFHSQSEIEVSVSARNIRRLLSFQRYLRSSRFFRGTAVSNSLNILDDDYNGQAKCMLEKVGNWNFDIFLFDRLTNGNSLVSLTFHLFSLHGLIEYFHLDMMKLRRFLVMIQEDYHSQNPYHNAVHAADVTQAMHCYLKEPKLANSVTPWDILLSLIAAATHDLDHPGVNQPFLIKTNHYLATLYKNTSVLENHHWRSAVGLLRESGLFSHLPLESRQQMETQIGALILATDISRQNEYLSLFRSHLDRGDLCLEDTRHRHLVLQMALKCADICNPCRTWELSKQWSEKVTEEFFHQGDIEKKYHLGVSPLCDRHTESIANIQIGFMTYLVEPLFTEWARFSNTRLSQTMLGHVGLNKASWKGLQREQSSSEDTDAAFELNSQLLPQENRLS
PDE3A, sequence (Q14432 whole entry): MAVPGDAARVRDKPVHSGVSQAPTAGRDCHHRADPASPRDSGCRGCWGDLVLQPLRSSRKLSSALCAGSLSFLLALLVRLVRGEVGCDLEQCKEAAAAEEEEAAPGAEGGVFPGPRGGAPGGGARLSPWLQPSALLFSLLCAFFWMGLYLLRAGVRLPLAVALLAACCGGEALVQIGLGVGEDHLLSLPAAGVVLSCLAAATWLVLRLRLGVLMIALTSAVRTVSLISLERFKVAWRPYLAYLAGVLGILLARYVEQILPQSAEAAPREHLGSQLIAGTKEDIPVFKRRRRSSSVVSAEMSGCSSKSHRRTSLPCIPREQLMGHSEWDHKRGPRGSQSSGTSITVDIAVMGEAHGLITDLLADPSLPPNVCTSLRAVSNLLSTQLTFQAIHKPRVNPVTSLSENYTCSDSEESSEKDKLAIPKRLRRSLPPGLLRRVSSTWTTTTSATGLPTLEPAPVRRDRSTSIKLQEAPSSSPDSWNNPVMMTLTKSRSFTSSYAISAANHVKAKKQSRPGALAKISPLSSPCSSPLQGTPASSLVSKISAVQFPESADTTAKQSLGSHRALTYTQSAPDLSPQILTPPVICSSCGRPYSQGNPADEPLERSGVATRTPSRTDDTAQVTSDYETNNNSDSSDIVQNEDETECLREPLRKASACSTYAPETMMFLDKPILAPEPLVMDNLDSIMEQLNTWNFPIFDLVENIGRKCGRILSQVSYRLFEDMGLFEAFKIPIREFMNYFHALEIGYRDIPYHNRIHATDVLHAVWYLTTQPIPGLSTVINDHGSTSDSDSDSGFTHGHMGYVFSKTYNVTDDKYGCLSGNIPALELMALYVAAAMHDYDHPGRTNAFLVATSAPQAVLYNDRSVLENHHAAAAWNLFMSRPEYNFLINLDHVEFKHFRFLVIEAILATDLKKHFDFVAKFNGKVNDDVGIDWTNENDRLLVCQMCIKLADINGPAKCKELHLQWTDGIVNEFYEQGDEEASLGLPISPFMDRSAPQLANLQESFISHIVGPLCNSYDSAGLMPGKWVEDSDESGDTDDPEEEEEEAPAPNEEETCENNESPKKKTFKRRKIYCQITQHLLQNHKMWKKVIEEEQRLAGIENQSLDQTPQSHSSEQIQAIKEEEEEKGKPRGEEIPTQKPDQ
PDE9A, sequence (O76083 whole entry): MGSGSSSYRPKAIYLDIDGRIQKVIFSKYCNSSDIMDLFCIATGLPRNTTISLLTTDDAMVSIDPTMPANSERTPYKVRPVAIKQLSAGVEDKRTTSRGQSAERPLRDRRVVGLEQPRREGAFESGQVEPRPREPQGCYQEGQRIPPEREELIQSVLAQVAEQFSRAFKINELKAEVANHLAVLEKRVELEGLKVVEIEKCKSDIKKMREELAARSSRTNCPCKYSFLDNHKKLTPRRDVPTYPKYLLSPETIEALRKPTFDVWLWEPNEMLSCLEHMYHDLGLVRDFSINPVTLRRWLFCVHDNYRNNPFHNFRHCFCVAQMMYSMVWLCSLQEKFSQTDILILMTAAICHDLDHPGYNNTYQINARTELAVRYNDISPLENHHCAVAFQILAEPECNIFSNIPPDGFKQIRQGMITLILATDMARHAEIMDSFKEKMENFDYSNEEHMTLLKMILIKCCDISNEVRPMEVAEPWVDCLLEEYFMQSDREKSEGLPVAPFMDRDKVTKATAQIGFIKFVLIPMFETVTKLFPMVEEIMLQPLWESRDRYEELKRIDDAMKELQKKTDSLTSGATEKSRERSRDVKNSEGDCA

For `Cc1nc2c(N3CCOCC3)nccn2c1-c1ccc(C2CCOCC2)nc1` [compound 25, 2-Methyl-8-morpholin-4-yl-3-[6-(tetrahydro-pyran-4-yl)-pyridin-3-yl]-imidazo[1,2-a]pyrazine], the concentration for half-maximal inhibition (IC50) on PDE1B is more than 100 µM; at PDE2A, 42.7 µM; at PDE3A it was 112 µM; on PDE7A, more than 100 µM; at PDE9A it was more than 100 µM. In addition, the figures for the ED50 (at PDE10; in assay [1]) were 4.6 mg/kg and 7.1 mg/kg, respectively.

These data come from US8859543B2, “Imidazo[1,2-a]pyrazine derivatives and their use for the prevention or treatment of neurological, psychiatric and metabolic disorders and diseases” (Janssen Pharmaceutica NV, priority 2010, dated 2014).
